Series [1] concerns SW620 cells. Description: Contact time / scheduling study with gemcitabine in SW620.
Series [2] has as its system Calu6 xenografts. The series can be described thus: Calu6 xenograft growth delay, combination with gemcitabine. The class given is in vivo, mouse. The note with it: Calu6 xenografts; CCT244747 75mg/kg p.o. or gemcitabine 100mg/kg i.v. alone.
Series [3] concerns HT29 xenografts. Description: HT29 xenograft growth delay, combination with gemcitabine. The class given is in vivo, mouse. The note with it: gemcitabine alone 100mg/kg i.v. days 0, 7, 14.
The test system of series [4] is HT29 colon carcinoma cells. Description: Cell cycle analysis. The class given is cell-based, human. The note with it: etoposide 25μM × 1h, measured at 24h.
Series [5] concerns HT29 tumors. The series can be described thus: HT29 xenograft growth delay, combination with irinotecan. The note with it: HT29 tumors; irinotecan alone 25mg/kg i.p. days 0, 4, 8. Type of series: in vivo, mouse.

Take `C[C@H](CN(C)C)Oc1nc(Nc2cc3cccc(Cl)c3cn2)cnc1C#N` [SAR-020106]: in series [1] (exposures <24h), the “enhancement of gemcitabine activity” value is recorded as “minimal enhancement”. The “continuous exposure giving maximum potentiation of gemcitabine cytotoxicity” value in series [1] (gemcitabine) is given as ≥ 48 h.
On to `Nc1ccn([C@@H]2O[C@H](CO)[C@@H](O)C2(F)F)c(=O)n1` [gemcitabine, reference compound], for which the “antitumor activity of each agent alone” value in series [2] is “minimal activity”. In addition, in series [3], the growth delay turned out to be 2.3 days.
For `COc1cc([C@@H]2c3cc4c(cc3[C@@H](O[C@@H]3O[C@@H]5CO[C@@H](C)O[C@H]5[C@H](O)[C@H]3O)[C@H]3COC(=O)[C@H]23)OCO4)cc(OC)c1O` [etoposide, reference compound], the “cells in G2/M” value in series [4] turned out to be 70.5%.
Consider `CCc1c2c(nc3ccc(OC(=O)N4CCC(N5CCCCC5)CC4)cc13)-c1cc3c(c(=O)n1C2)COC(=O)[C@]3(O)CC` [irinotecan, reference compound], for which the growth delay in series [5] came out at 6.9 days.

(Values after paper PMC3474704 (Clinical cancer research : an official journal of the …, 2012).)
